Results as given in patent US20190315806A1, “POLYMYXIN DERIVATIVE, PREPARATION METHOD AND APPLICATION THEREOF” (priority 2016, published 2019).
Values after ≈ are worked out from the molar mass of the structure shown. Where a SMILES comes first, the peptide text is derived from it. Bridges are numbered along the chain shown (N, C = ends). [ ]: non-standard residue; d: D form. The star is where a group is joined. dPhe(4-NO2) = N[C@H](Cc1ccc([N+](=O)[O-])cc1)C(=O)O; Benzoyl(4-OPh) = O=C(c1ccc(Oc2ccccc2)cc1)*; dPhe(4-Cl) = N[C@H](Cc1ccc(Cl)cc1)C(=O)O; dPhe(2-Cl) = N[C@H](Cc1ccccc1Cl)C(=O)O; X7 = Cc1ccc(Oc2ccc(C(=O)*)cc2)cc1; X2 = CC[C@H](C)CCCCC(=O)*; X5 = CCCCCCCC(=O)CC(=O)*; Dab = NCC[C@H](N)C(=O)O; X9 = CCCCCCC(=O)CC(=O)*; X6 = CCCC(=O)CC(=O)*; X8 = CN(C)CCCCC(=O)*; X4 = COCCCCCC(=O)*

How the values were obtained:
Format in all cases: cell-based
[1] = system: Klebsiella pneumoniae ATCC BAA-2146 (NDM-1); test: Antibacterial activity, MIC by dish double dilution method; settings: ATCC BAA-2146
Method: (§1) The minimum inhibitory concentration (MIC) was determined by means of dish double dilution method using a Multipoint inoculator according to the CLSI recommended method. The compounds of the present invention (for example, the compounds prepared in the Embodiments) and the reference substances were diluted twice each time with the broth into various desired concentrations, and appropriate amounts were added to the dishes. Agar medium is melted, and then quantitatively injected into the dish containing the drug solution, and mixed. The final concentrations of the compounds of the invention (e.g., the compounds prepared in the Embodiments) and the controls were 0.03, 0.06, 0.125, 0.25 . . . 128 μg/mL, respectively. The test bacteria were cultured overnight with nutrient broth, brain heart infusion or HTM broth. During the tests, the bacterial solutions were diluted appropriately, and the test bacteria (inoculation amount 10^4 CFU/dot) were inoculated on the surface of the drug-containing agar by a multi-point inoculator. After drying, the bacterial was incubated for 18 to 24 hours at 35° C., the results were observed, the minimum concentrations of the compounds of the present invention (for example, the compounds prepared in the Embodiments) and the controls contained in the dishes with no growth of colonies were MICs.
(§2) The strains used in the antibacterial activity experiments were from the American Type Culture Collection (ATCC) and clinical isolates.
(§3) The strains used for the experiments on antibacterial activity included Escherichia coli ATCC 25922, Klebsiella pneumoniae ATCC BAA-2146 (NDM-1), Pseudomonas aeruginosa ATCC 27853, Acinetobacter baumannii ATCC 19606 and Staphylococcus epidermidis ATCC 12228.
(§4) Tested samples: polymyxin derivatives prepared according to the technical scheme of the present invention;
(§5) Controls: polymyxin B sulfate and colistin (polymyxin E sulfate).

[2] = system: Pseudomonas aeruginosa ATCC 27853; settings: ATCC 27853
Method: as §1, §2, §3, §4, §5

[3] = system: Acinetobacter baumannii ATCC 19606; settings: ATCC 19606
Method: as §1, §2, §3, §4, §5

[4] = system: Staphylococcus epidermidis ATCC 12228; settings: ATCC 12228
Method: as §1, §2, §3, §4, §5

[5] = system: Escherichia coli ATCC 25922; settings: ATCC 25922
Method: as §1, §2, §3, §4, §5

MIC K. pneumoniae ATCC BAA-2146 (NDM-1) [1] [µg/mL]	MIC P. aeruginosa ATCC 27853 [2] [µg/mL]	MIC A. baumannii ATCC 19606 [3] [µg/mL]	MIC S. epidermidis ATCC 12228 [4] [µg/mL]	MIC E. coli ATCC 25922 [5] [µg/mL]	SMILES
4 (≈ 3.36 µM)	1 (≈ 0.839 µM)	2 (≈ 1.68 µM)	>128	1 (≈ 0.839 µM)	COCCCCCC(=O)N[C@@H](CCN)C(=O)N[C@H](C(=O)N[C@@H](CCN)C(=O)N[C@H]1CCNC(=O)[C@H]([C@@H](C)O)NC(=O)[C@H](CCN)NC(=O)[C@H](CCN)NC(=O)[C@H](CC(C)C)NC(=O)[C@@H](Cc2ccccc2)NC(=O)[C@H](CCN)NC1=O)[C@@H](C)O [Compound 1, 6-methoxycaproyl-Dab-Thr-Dab-ring(4-10)[Dab-Dab-D-Phe-Lue-Dab-Dab-Thr]] (X4-[Dab]T[Dab][Dab][Dab][dF]L[Dab][Dab]T; lactam 4-C)
128 (≈ 108 µM)	1 (≈ 0.84 µM)	8 (≈ 6.72 µM)	>128	16 (≈ 13.4 µM)	CC(C)C[C@@H]1NC(=O)[C@@H](Cc2ccccc2)NC(=O)[C@H](CCN)NC(=O)[C@@H](NC(=O)[C@H](CCN)NC(=O)[C@@H](NC(=O)[C@H](CCN)NC(=O)CCCCN(C)C)[C@@H](C)O)CCNC(=O)[C@H]([C@@H](C)O)NC(=O)[C@H](CCN)NC(=O)[C@H](CCN)NC1=O [Compound 2, N,N-dimethylaminovaleryl-Dab-Thr-Dab-ring(4-10)[Dab-Dab-D-Phe-Lue-Dab-Dab-Thr]] (X8-[Dab]T[Dab][Dab][Dab][dF]L[Dab][Dab]T; lactam 4-C)
2 (≈ 1.7 µM)	2 (≈ 1.7 µM)	8 (≈ 6.81 µM)	128 (≈ 109 µM)	0.5 (≈ 0.425 µM)	CCCC(=O)CC(=O)N[C@@H](CCN)C(=O)N[C@H](C(=O)N[C@@H](CCN)C(=O)N[C@H]1CCNC(=O)[C@H]([C@@H](C)O)NC(=O)[C@H](CCN)NC(=O)[C@H](CCN)NC(=O)[C@H](CC(C)C)NC(=O)[C@@H](Cc2ccccc2)NC(=O)[C@H](CCN)NC1=O)[C@@H](C)O [Compound 3, 3-oxocaproyl-Dab-Thr-Dab-ring(4-10)[Dab-Dab-D-Phe-Lue-Dab-Dab-Thr]] (X6-[Dab]T[Dab][Dab][Dab][dF]L[Dab][Dab]T; lactam 4-C)
1 (≈ 0.821 µM)	2 (≈ 1.64 µM)	2 (≈ 1.64 µM)	16 (≈ 13.1 µM)	1 (≈ 0.821 µM)	CCCCCCC(=O)CC(=O)N[C@@H](CCN)C(=O)N[C@H](C(=O)N[C@@H](CCN)C(=O)N[C@H]1CCNC(=O)[C@H]([C@@H](C)O)NC(=O)[C@H](CCN)NC(=O)[C@H](CCN)NC(=O)[C@H](CC(C)C)NC(=O)[C@@H](Cc2ccccc2)NC(=O)[C@H](CCN)NC1=O)[C@@H](C)O [Compound 6, 3-oxononanoyl-Dab-Thr-Dab-ring(4-10)[Dab-Dab-D-Phe-Lue-Dab-Dab-Thr]] (X9-[Dab]T[Dab][Dab][Dab][dF]L[Dab][Dab]T; lactam 4-C)
2 (≈ 1.62 µM)	4 (≈ 3.25 µM)	2 (≈ 1.62 µM)	32 (≈ 26 µM)	2 (≈ 1.62 µM)	CCCCCCCC(=O)CC(=O)N[C@@H](CCN)C(=O)N[C@H](C(=O)N[C@@H](CCN)C(=O)N[C@H]1CCNC(=O)[C@H]([C@@H](C)O)NC(=O)[C@H](CCN)NC(=O)[C@H](CCN)NC(=O)[C@H](CC(C)C)NC(=O)[C@@H](Cc2ccccc2)NC(=O)[C@H](CCN)NC1=O)[C@@H](C)O [Compound 7, 3-oxodecanoyl-Dab-Thr-Dab-ring(4-10)[Dab-Dab-D-Phe-Lue-Dab-Dab-Thr]] (X5-[Dab]T[Dab][Dab][Dab][dF]L[Dab][Dab]T; lactam 4-C)
2 (≈ 1.62 µM)	2 (≈ 1.62 µM)	0.5 (≈ 0.404 µM)	4 (≈ 3.23 µM)	1 (≈ 0.808 µM)	CC[C@H](C)CCCCC(=O)N[C@@H](CCN)C(=O)N[C@H](C(=O)N[C@@H](CCN)C(=O)N[C@H]1CCNC(=O)[C@H]([C@@H](C)O)NC(=O)[C@H](CCN)NC(=O)[C@H](CCN)NC(=O)[C@H](CC(C)C)NC(=O)[C@@H](Cc2ccccc2Cl)NC(=O)[C@H](CCN)NC1=O)[C@@H](C)O [Compound 18, (S)-6-methyloctanoyl-Dab-Thr-Dab-ring(4-10)[Dab-Dab-D-Phe(2-Cl)-Lue-Dab-Dab-Thr]] (X2-[Dab]T[Dab][Dab][Dab][dPhe(2-Cl)]L[Dab][Dab]T; lactam 4-C)

Continued, compound first:

SMILES	MIC K. pneumoniae ATCC BAA-2146 (NDM-1) [1] [µg/mL]	MIC P. aeruginosa ATCC 27853 [2] [µg/mL]	MIC A. baumannii ATCC 19606 [3] [µg/mL]	MIC S. epidermidis ATCC 12228 [4] [µg/mL]	MIC E. coli ATCC 25922 [5] [µg/mL]
CC(C)C[C@@H]1NC(=O)[C@@H](Cc2ccccc2)NC(=O)[C@H](CCN)NC(=O)[C@@H](NC(=O)[C@H](CCN)NC(=O)[C@@H](NC(=O)[C@H](CCN)NC(=O)c2ccc(Oc3ccccc3)cc2)[C@@H](C)O)CCNC(=O)[C@H]([C@@H](C)O)NC(=O)[C@H](CCN)NC(=O)[C@H](CCN)NC1=O [Compound 8, 4-(phenoxy)benzoyl-Dab-Thr-Dab-ring(4-10)[Dab-Dab-D-Phe-Lue-Dab-Dab-Thr]] ({Benzoyl(4-OPh)}-[Dab]T[Dab][Dab][Dab][dF]L[Dab][Dab]T; lactam 4-C)	4 (≈ 3.18 µM)	8 (≈ 6.35 µM)	2 (≈ 1.59 µM)	16 (≈ 12.7 µM)	4 (≈ 3.18 µM)
Cc1ccc(Oc2ccc(C(=O)N[C@@H](CCN)C(=O)N[C@H](C(=O)N[C@@H](CCN)C(=O)N[C@H]3CCNC(=O)[C@H]([C@@H](C)O)NC(=O)[C@H](CCN)NC(=O)[C@H](CCN)NC(=O)[C@H](CC(C)C)NC(=O)[C@@H](Cc4ccccc4)NC(=O)[C@H](CCN)NC3=O)[C@@H](C)O)cc2)cc1 [Compound 9, 4-(p-methylphenoxy)benzoyl-Dab-Thr-Dab-ring(4-10)[Dab-Dab-D-Phe-Lue-Dab-Dab-Thr]] (X7-[Dab]T[Dab][Dab][Dab][dF]L[Dab][Dab]T; lactam 4-C)	4 (≈ 3.14 µM)	4 (≈ 3.14 µM)	4 (≈ 3.14 µM)	8 (≈ 6.28 µM)	4 (≈ 3.14 µM)
CC[C@H](C)CCCCC(=O)N[C@@H](CCN)C(=O)N[C@H](C(=O)N[C@@H](CCN)C(=O)N[C@H]1CCNC(=O)[C@H]([C@@H](C)O)NC(=O)[C@H](CCN)NC(=O)[C@H](CCN)NC(=O)[C@H](CC(C)C)NC(=O)[C@@H](Cc2ccc(O)cc2)NC(=O)[C@H](CCN)NC1=O)[C@@H](C)O [Compound 12, (S)-6-methyloctanoyl-Dab-Thr-Dab-ring(4-10)[Dab-Dab-D-Tyr-Lue-Dab-Dab-Thr]] (X2-[Dab]T[Dab][Dab][Dab][dY]L[Dab][Dab]T; lactam 4-C)	2 (≈ 1.64 µM)	1 (≈ 0.82 µM)	2 (≈ 1.64 µM)	128 (≈ 105 µM)	2 (≈ 1.64 µM)
CC[C@H](C)CCCCC(=O)N[C@@H](CCN)C(=O)N[C@H](C(=O)N[C@@H](CCN)C(=O)N[C@H]1CCNC(=O)[C@H]([C@@H](C)O)NC(=O)[C@H](CCN)NC(=O)[C@H](CCN)NC(=O)[C@H](CC(C)C)NC(=O)[C@@H](Cc2ccc([N+](=O)[O-])cc2)NC(=O)[C@H](CCN)NC1=O)[C@@H](C)O [Compound 14, (S)-6-methyloctanoyl-Dab-Thr-Dab-ring(4-10)[Dab-Dab-D-Phe(4-NO2)-Lue-Dab-Dab-Thr]] (X2-[Dab]T[Dab][Dab][Dab][dPhe(4-NO2)]L[Dab][Dab]T; lactam 4-C)	2 (≈ 1.6 µM)	2 (≈ 1.6 µM)	1 (≈ 0.801 µM)	8 (≈ 6.41 µM)	1 (≈ 0.801 µM)
CC[C@H](C)CCCCC(=O)N[C@@H](CCN)C(=O)N[C@H](C(=O)N[C@@H](CCN)C(=O)N[C@H]1CCNC(=O)[C@H]([C@@H](C)O)NC(=O)[C@H](CCN)NC(=O)[C@H](CCN)NC(=O)[C@H](CC(C)C)NC(=O)[C@@H](Cc2ccc(Cl)cc2)NC(=O)[C@H](CCN)NC1=O)[C@@H](C)O [Compound 16, (S)-6-methyloctanoyl-Dab-Thr-Dab-ring(4-10)[Dab-Dab-D-Phe(4-Cl)-Lue-Dab-Dab-Thr]] (X2-[Dab]T[Dab][Dab][Dab][dPhe(4-Cl)]L[Dab][Dab]T; lactam 4-C)	2 (≈ 1.62 µM)	2 (≈ 1.62 µM)	1 (≈ 0.808 µM)	16 (≈ 12.9 µM)	1 (≈ 0.808 µM)
